Reference: patent publication US12428403B2, “N-(heterocyclyl and heterocyclylalkyl)-3-benzylpyridin-2-amine derivatives as SSTR4 agonists” (Takeda Pharmaceutical Company Limited, priority 2020, dated 2025)
pEC50, pIC50: −log10 of the molar value.

Legend:
SSTR4 [1] = target: T1, SSTR4 (Homo sapiens, UniProt P31391); experiment: cell-based
Procedure: This cell-based assay measures the ability of compounds to inhibit forskolin stimulated cAMP in CHO-K1 cells overexpressing SSTR4. CHO-K1 cells overexpressing SSTR4 (CHO-SSTR4) are purchased from DiscoveRx (product code 95-0059C2). The CHO-SSTR4 cells are maintained in F12K media with 10% Fetal Bovine Serum (Hyclone), 1% Pen/Strep (Life Technologies), and 800 μg/mL G418 (Life Technologies). To perform the assay, 3000 cells are plated per well in white 384-well plate (Corning 3570) in 50 complete media and the cells are allowed to attach for 16 hours in a 37° C., 5% CO2 incubator. The next day, the culture media is removed from the cells and the cells are washed (added then removed) with Krebs Ringer Buffer (ZenBio, KRB-1000 mL). Test compounds are suspended in DMSO and diluted in stimulation buffer: Krebs Ringer Buffer plus 0.5% BSA (Roche), 300 μM IBMX (Sigma), and 350 nM forskolin (Sigma). The cells are incubated in 10 μL compound/stimulation buffer for 30 minutes at room temperature. Cellular cAMP levels are detected with a HTRF LANCE Ultra cAMP kit (Perkin Elmer, catalog number TRF0264).
The assay is performed in accordance with the manufacturer's instructions. Five μL of diluted Eu-W8044 labeled streptavidin (dilution: 1:50 in cAMP Detection Buffer) is added to each well. Then 5 μL of diluted biotin cAMP (dilution: 1:150 in cAMP Detection Buffer) is added to each well. The plates are covered and allowed to incubate for 60 minutes at room temperature on a shaker. HTRF (665 nm/615 nm) is read on a Perkin Elmer ENVISION plate reader. The pEC50 values are generated using Activity Base for Screening Data Management.

SSTR4 [2] = target: T1, SSTR4; experiment: SSTR4 I-125 somatostatin competition binding assay (CHO-K1 membranes); parameters: host or cells: CHO-K1; conditions: competition with I-125 labeled somatostatin, membranes from CHO-K1 overexpressing SSTR4; read-out: SSTR4 Binding pIC50 (converted)
Source text: SSTR4I-125 Somatostatin Competition Binding Assay
Membranes from CHO-K1 cells overexpressing SSTR4 are purchased from Perkin Elmer (catalog number ES-524-M400UA). […] The scintillator sheets are melted to filters using a heat block.

SSTR1 = SSTR1 (Homo sapiens, UniProt P30872); experiment: biochemical;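 also: competitive binding to membranes of CHO-K1 cells overexpressing SSTR1, incubated 60 min at room temperature, radioactivity read by scintillation counting after filtration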
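For pEC50 in this document: CHO-K1 cells overexpressing SSTR4, reduction of forskolin-driven cAMP after 30 min compound exposure at room temperature, cAMP read by HTRF LANCE Ultra kit.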
Procedure: SSTR1 I-125 Somatostatin Competition Binding Assay for Selectivity Versus SSTR1
Membranes from CHO-K1 cells overexpressing SSTR1 are purchased from Perkin Elmer (catalog number ES-520-M400UA). Test compounds are suspended in DMSO and then diluted in assay buffer (25 mM HEPES pH 7.4, 10 mM MgCl2, 1 mM CaCl2, 0.5% BSA) plus 0.4 nM I-125 labeled somatostatin (Perkin Elmer catalog number NEX389). […] Then 10 μg of SSTR1 membranes in 50 μL assay buffer are added per well. The plate is incubated for 60 minutes at room temperature. […] The contents of the assay plate are transferred to filters with a TomTech harvester and washed 5 times with 20 mM HEPES, 100 mM NaCl. […] The scintillator sheets are melted to the filters using a heat block. The filters are then read in a MicroBeta scintillation counter. Binding Ki curves are generated using Activity Base for Screening Data Management and the results are reported as pIC50.

Chain of SSTR1 (P30872 whole entry): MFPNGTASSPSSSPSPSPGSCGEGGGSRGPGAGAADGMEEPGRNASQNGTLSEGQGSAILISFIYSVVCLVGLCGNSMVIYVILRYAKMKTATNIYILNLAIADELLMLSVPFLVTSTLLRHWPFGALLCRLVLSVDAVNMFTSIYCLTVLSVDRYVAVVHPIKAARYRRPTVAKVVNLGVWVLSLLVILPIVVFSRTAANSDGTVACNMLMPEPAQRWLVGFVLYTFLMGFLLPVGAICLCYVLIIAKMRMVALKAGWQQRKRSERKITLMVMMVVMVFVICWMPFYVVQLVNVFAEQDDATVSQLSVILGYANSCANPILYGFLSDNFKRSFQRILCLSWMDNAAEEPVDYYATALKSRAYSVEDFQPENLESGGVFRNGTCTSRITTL
T1 sequence (P31391 whole entry): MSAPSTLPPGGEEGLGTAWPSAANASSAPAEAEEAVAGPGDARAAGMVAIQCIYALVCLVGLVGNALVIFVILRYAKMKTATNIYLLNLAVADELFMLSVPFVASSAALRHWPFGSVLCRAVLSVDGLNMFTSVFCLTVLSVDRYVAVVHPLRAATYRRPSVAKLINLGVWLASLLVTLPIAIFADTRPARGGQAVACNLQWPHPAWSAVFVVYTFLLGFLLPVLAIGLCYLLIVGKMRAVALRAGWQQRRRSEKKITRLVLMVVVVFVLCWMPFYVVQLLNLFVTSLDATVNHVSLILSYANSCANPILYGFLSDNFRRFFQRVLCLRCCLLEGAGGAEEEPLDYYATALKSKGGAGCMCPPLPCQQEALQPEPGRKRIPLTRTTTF

Structure (SMILES) | pEC50 (SSTR4 [1]) | IC50 (SSTR4 [2]) | pIC50 (SSTR1)
COc1cccc(Cc2nc3cccc(C)c3nc2NCCN2CCC2)c1 (single isomer, unassigned) [Example 4, N-(2-(azetidin-1-yl)ethyl)-3-(3-methoxybenzyl)-8-methylquinoxalin-2-amine] | 7.20 | 38 nM | 5.81
CNC(=O)c1cnc(NCCN2CCCC2)c([C@@H](C)c2ccc(F)cc2)n1 (single isomer, unassigned) [Example 23] | 7.60 | 63.1 nM | 4.88
C[C@H](c1ccc(F)cc1)c1nccnc1NCCN1CCCC1 (single isomer, unassigned) [Example 121] | 8.36 | 39.8 nM | 5.86
Cc1nnc([C@H](C)c2ccccc2)c(NCCN2CCC2)n1 (single isomer, unassigned) [Example 144] | 7.42 | 603 nM | 4.73
Cc1cnc(-c2cnc(NCCN3CCCC3)c(C(C)c3ccc(F)cc3)n2)s1 (centres unmarked) [Example 127, 3-(1-(4-fluorophenyl)ethyl)-5-(5-methylthiazol-2-yl)-N-(2-(pyrrolidin-1-yl)ethyl)pyrazin-2-amine] | 6.65 |  | 
Cc1cnc(-c2cnc(NCCN3CCCC3)c(C(C)c3ccc(F)cc3)n2)n1C (centres unmarked) [Example 128, 5-(1,5-dimethyl-1H-imidazol-2-yl)-3-(1-(4-fluorophenyl)ethyl)-N-(2-(pyrrolidin-1-yl)ethyl)pyrazin-2-amine] | 7.09 |  | 
CCc1nnc(Cc2cccc(C)c2)c(NCCN2CCC2)n1 [Example 130, N-(2-(azetidin-1-yl)ethyl)-3-ethyl-6-(3-methylbenzyl)-1,2,4-triazin-5-amine] | 8.10 |  | 

The remaining lines, values ahead:

pEC50 (SSTR4 [1]) | IC50 (SSTR4 [2]) | pIC50 (SSTR1) | Structure (SMILES)
7.42 | 129 nM | 4.74 | Cc1nc(N[C@@H]2CCN(C)C[C@H]2C)c(Cc2ccc(F)cc2)nc1C(N)=O (racemic) [Example 45, 5-((trans-1,3-dimethylpiperidin-4-yl)amino)-6-(4-fluorobenzyl)-3-methylpyrazine-2-carboxamide]
7.14 | 490 nM | 4.84 | CNC(=O)c1nc(Cc2ccc(F)cc2)c(N[C@@H]2CCN(C)C[C@H]2C)nc1C (racemic) [Example 46, 5-((trans-1,3-dimethylpiperidin-4-yl)amino)-6-(4-fluorobenzyl)-N,3-dimethylpyrazine-2-carboxamide]
8.29 | 24.5 nM | 5.55 | C[C@H](c1ccc(F)cc1)c1nc(C(N)=O)cnc1NCCN1CCCC1 (single isomer, unassigned) [Example 21]
7.73 | 45.7 nM | 5.29 | CNC(=O)c1cnc(NCCN2CCCC2)c([C@H](C)c2ccc(F)cc2)n1 (single isomer, unassigned) [Example 24]
7.31 | 912 nM | 4.91 | C[C@H](c1ccc(F)cc1)c1nc(C(N)=O)cnc1N[C@@H]1CCN(C)C1 (single isomer, unassigned) [Example 30]
7.37 | 209 nM | 4.52 | Cc1nnc([C@H](C)c2ccc(F)cc2)c(NCCN2CCC2)n1 (single isomer, unassigned) [Example 133]
8.66 | 19.5 nM | 4.82 | Cc1nnc([C@@H](C)c2ccc(F)cc2)c(NCCN2CCC2)n1 (single isomer, unassigned) [Example 134]
7.67 | 93.3 nM | 4.59 | Cc1nnc([C@H](C)c2ccc(F)cc2)c(N[C@@H]2CCN(C)C2)n1 (single isomer, unassigned) [Example 141]
6.89 |  |  | Cc1nnc(Cc2ccc(F)cc2)c(NCCN2CCC2)n1 [Example 135, N-(2-(azetidin-1-yl)ethyl)-6-(4-fluorobenzyl)-3-methyl-1,2,4-triazin-5-amine]
6.85 |  |  | Cc1nnc(Cc2ccc(F)cc2)c(NC2CCN(C)CC2)n1 [Example 137, 6-(4-fluorobenzyl)-3-methyl-N-(1-methylpiperidin-4-yl)-1,2,4-triazin-5-amine]
